Results: paper PMC6696278 (International Journal of Molecular Sciences, 2019)

How the values were obtained:
Assay type in all cases: binding
[1] = molecular target: T1, human galectin-9C (C-terminal domain) (Homo sapiens, UniProt O00182); test: competitive fluorescence polarization assay, galectin-9C; conditions: PBS
T1 construct: 4N (N-terminal domain) 4C (C-terminal domain), 7, 8N, 8C, 9N, and 9C; made in house
Text: (§1) Human galectin-1 [25], galectin-2 [26], galectin-3 [27], galectin-4N [19], galectin-4C [19], galectin-8N [28], galectin-8C [28], galectin-9N [29], and galectin-9C [30], were expressed and purified as described earlier. Human galectin-7 was expressed using a pET3c plasmid in E. coli BL21-star. The plasmid containing expression optimized DNA encoding the full human galectin-7 sequence (NCBI Reference Sequence: NP_002298.1) was obtained from GenScript (Piscataway, NJ, USA). […] Lactose was removed by chromatography on a PD-10 column (Amersham Biosciences) with repeated ultrafiltration with Centriprep (Amicon).
(§2) Fluorescence polarization experiments were carried out either with a POLARStar plate reader and FLUOstar Galaxy software or with a PheraStarFS plate reader and PHERAstar Mars version 2.10 R3 software (BMG, Offenburg, Germany). The dissociation constant (Kd) values were determined in PBS as described earlier. Specific conditions for galectin-1, 2, 3, 4N, 4C, 8N, 8C, 9N, and 9C were kept as reported. Experiments were performed at room temperature with human galectin-7 at 5 µM and the fluorescent probe β-D-galactopyranosyl-(1–4)-2-acetamido-2-deoxy-β-d-glucopyranosyl-(1–3)-β-d-galactopyranosyl-(1–4)-(N1-fluorescein-5-yl-carbonylaminomethylcarbonyl)-β-D-glucopyranosylamine at 0.02 µM. All the compounds in Table 1 except 32 were dissolved in a neat DMSO at 100 mM and diluted in PBS to three to six different concentrations to be tested in duplicate.

[2] = molecular target: T2, human galectin-8N (N-terminal domain) (Homo sapiens, UniProt O00214); test: competitive fluorescence polarization assay, galectin-8N; conditions: PBS
T2 construct: 4N (N-terminal domain) 4C (C-terminal domain), 7, 8N, 8C, 9N, and 9C; made in house
T2 sequence (O00214 19-152 limits assumed): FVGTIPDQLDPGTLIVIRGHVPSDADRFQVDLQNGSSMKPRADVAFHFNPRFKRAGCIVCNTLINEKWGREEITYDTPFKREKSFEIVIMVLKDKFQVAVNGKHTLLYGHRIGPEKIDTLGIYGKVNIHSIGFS
Text: as §1, §2

human galectin-7 = molecular target: T3, human galectin-7 (Homo sapiens, UniProt P47929); test: competitive fluorescence polarization assay, galectin-7; conditions: average and SEM, PBS, room temperature, galectin-7 at 5 µM, probe 0.02 µM
T3 construct: made in house; host or cells: E. coli BL21-star, pET3c plasmid (DNA from GenScript)
Text: (§3) Human galectin-1 [25], galectin-2 [26], galectin-3 [27], galectin-4N [19], galectin-4C [19], galectin-8N [28], galectin-8C [28], galectin-9N [29], and galectin-9C [30], were expressed and purified as described earlier. Human galectin-7 was expressed using a pET3c plasmid in E. coli BL21-star. The plasmid containing expression optimized DNA encoding the full human galectin-7 sequence (NCBI Reference Sequence: NP_002298.1) was obtained from GenScript (Piscataway, NJ, USA). Bacterial culture and induction, and galectin purification was essential as described for galectin-3 expressed with the same vector [27]; a typical yield was 1.5–2 mg/L culture. Lactose was removed by chromatography on a PD-10 column (Amersham Biosciences) with repeated ultrafiltration with Centriprep (Amicon).
as §2

human galectin-1 = molecular target: T4, human galectin-1 (Homo sapiens, UniProt P09382); test: competitive fluorescence polarization assay, galectin-1; conditions: for Kd: average and SEM of 4–8 single-triple point measurements, PBS
T4 construct: made in house
Text: as §1, §2

[3] = molecular target: T5, human galectin-4N (N-terminal domain) (Homo sapiens, UniProt P56470); test: competitive fluorescence polarization assay, galectin-4N; conditions: for Kd: N-terminal domain, average and SEM, PBS
T5 construct: 4N (N-terminal domain) 4C (C-terminal domain); made in house
T5 sequence (P56470 19-150 limits assumed): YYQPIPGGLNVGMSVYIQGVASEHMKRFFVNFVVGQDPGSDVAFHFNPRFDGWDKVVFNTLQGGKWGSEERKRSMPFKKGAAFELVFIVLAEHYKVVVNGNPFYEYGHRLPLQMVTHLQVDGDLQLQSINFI
Text: as §3, §2

[4] = molecular target: T6, human galectin-9N (N-terminal domain) (Homo sapiens, UniProt O00182); test: competitive fluorescence polarization assay, galectin-9N; conditions: PBS
T6 construct: 4N (N-terminal domain) 4C (C-terminal domain), 7, 8N, 8C, 9N, and 9C; made in house
Text: as §3, §2

[5] = molecular target: T7, human galectin-8C (C-terminal domain) (Homo sapiens, UniProt O00214); test: competitive fluorescence polarization assay, galectin-8C; conditions: PBS
T7 construct: 4N (N-terminal domain) 4C (C-terminal domain), 7, 8N, 8C, 9N, and 9C; made in house
T7 sequence (O00214 187-317 limits assumed): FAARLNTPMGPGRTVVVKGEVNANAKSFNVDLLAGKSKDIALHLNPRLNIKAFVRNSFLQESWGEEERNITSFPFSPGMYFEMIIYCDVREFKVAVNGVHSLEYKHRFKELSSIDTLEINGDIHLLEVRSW
Text: as §1, §2

human galectin-3 = molecular target: T8, human galectin-3 (Homo sapiens, UniProt P17931); test: competitive fluorescence polarization assay, galectin-3; conditions: average and SEM, PBS
T8 construct: made in house; host or cells: vector pET3c (the same vector as galectin-7)
Text: as §1, §2

human galectin-2 = molecular target: T9, human galectin-2 (Homo sapiens, UniProt P05162); test: competitive fluorescence polarization assay, galectin-2; conditions: average and SEM, PBS
T9 construct: made in house
T9 sequence (P05162 1-132): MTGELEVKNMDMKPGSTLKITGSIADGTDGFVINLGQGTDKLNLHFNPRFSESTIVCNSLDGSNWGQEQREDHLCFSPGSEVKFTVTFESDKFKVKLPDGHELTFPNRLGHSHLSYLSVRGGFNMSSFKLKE
Text: as §3, §2

[6] = molecular target: T10, human galectin-4C (C-terminal domain) (Homo sapiens, UniProt P56470); test: competitive fluorescence polarization assay, galectin-4C; conditions: PBS
T10 construct: 4N (N-terminal domain) 4C (C-terminal domain); made in house
T10 sequence (P56470 194-323 limits assumed): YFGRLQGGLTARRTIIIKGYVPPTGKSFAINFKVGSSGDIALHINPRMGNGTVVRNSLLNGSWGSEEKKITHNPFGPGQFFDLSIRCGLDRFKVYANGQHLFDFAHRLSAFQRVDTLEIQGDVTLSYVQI
Text: as §1, §2

T8 sequence (P17931 whole entry): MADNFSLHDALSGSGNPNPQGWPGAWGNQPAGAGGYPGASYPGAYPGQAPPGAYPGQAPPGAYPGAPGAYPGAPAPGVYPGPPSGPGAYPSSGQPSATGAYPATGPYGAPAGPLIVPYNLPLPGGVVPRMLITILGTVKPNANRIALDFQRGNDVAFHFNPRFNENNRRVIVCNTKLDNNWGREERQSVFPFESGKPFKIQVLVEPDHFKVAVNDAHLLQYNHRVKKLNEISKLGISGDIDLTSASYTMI
T6 sequence (O00182 17-148 limits assumed): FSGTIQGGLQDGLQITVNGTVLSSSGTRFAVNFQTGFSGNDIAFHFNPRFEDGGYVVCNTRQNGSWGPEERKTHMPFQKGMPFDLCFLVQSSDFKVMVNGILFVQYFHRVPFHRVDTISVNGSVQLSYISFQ
T1 sequence (O00182 227-355 limits assumed): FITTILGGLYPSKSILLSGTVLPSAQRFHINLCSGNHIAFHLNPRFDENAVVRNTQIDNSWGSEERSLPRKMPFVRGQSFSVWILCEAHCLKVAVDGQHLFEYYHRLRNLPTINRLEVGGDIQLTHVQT
T3 sequence (P47929 whole entry): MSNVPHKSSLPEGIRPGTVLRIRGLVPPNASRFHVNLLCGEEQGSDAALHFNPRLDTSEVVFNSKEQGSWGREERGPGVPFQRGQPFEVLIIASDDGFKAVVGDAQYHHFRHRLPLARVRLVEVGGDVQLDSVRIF
T4 sequence (P09382 whole entry): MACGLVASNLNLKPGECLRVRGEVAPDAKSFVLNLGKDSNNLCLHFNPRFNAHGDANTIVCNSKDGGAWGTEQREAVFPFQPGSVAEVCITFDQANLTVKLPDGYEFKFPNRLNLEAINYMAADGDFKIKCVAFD

SMILES	Kd ([1]; Table 1, average and SEM) [mM]	Kd ([2]; Table 1, average and SEM) [mM]	Kd (human galectin-7; Table 1) [mM]	Kd (human galectin-1; Table 1) [mM]	Kd ([3]; Table 1) [mM]	Kd ([4]; Table 1, average and SEM) [mM]	Kd ([5]; Table 1, average and SEM) [mM]	Kd (human galectin-3; Table 1) [mM]	Kd (human galectin-2; Table 1) [mM]	Kd ([6]; Table 1, average and SEM) [mM]	Kd (human galectin-2; Table 2) [mM]	Kd ([1]; Table 2, average and SEM) [mM]	Kd ([4]; Table 2, average and SEM) [mM]	other results
CO[C@@H]1O[C@H](CO)[C@H](O)[C@@H](CO)[C@H]1O [Compound 1a, Methyl 3-Deoxy-3-C-Hydroxymethyl-β-D-Gulopyranoside]	> 4	> 4	> 4	1.3 ± 0.15	> 4	> 4	3.7 ± 0.02	> 4	–	–	–	–	–	fold better affinity for galectin-1 than reference methyl β-D-galactopyranoside 32 (human galectin-1; ratio of Kd values): 7 fold
CO[C@@H]1O[C@H](CO)[C@H](O)[C@H](CO)[C@H]1O [Compound 1b, Methyl 3-Deoxy-3-C-Hydroxymethyl-β-D-Galactopyranoside]	> 4	> 4	> 4	> 4	> 4	> 4	> 4	> 4	> 4	> 4	–	–	–	binding to galectin-4N (in words) [3]: weak binding
CO[C@@H]1O[C@H](CO)[C@H](O)[C@H](COc2cccc(C(F)(F)F)c2)[C@H]1O [Compound 2, Methyl 3-Deoxy-3-C-(3-Trifluoromethylphenoxymethyl)-β-D-Galactopyranoside]	> 4	> 4	> 4	> 4	> 4	> 4	> 4	> 4	> 4	> 4	–	–	–	–
COC[C@H]1[C@@H](O)[C@@H](CO)O[C@@H](OC)[C@@H]1O [Compound 3, Methyl 3-Deoxy-3-C-Methoxymethyl-β-D-Galactopyranoside]	–	> 4	–	> 4	–	–	> 4	> 4	–	–	–	–	–	–
CO[C@@H]1O[C@H](CO)[C@H](O)[C@H](Cn2cc(-c3cccc(F)c3)nn2)[C@H]1O [Compound 4, Methyl 3-Deoxy-3-C-[4-(3-Fluorophenyl)-1H-1,2,3-Triazol-1-Ylmethyl]-β-D-Galactopyranoside]	> 4	> 4	> 4	> 4	> 4	> 4	> 4	> 4	> 4	> 4	–	–	–	–
CO[C@@H]1O[C@H](CO)[C@H](O)[C@H](CNC(=O)Nc2cccc(F)c2)[C@H]1O [Compound 5, Methyl 3-Deoxy-3-C-(3-Fluorophenylureido)Methyl-β-D-Galactopyranoside]	> 4	> 4	> 4	> 4	> 4	> 4	> 4	> 4	> 4	> 4	–	–	–	–
CO[C@@H]1O[C@H](CO)[C@H](O)[C@@H](CNS(=O)(=O)c2ccccc2)[C@H]1O [Compound 6, Methyl 3-Deoxy-3-C-(Phenylsufonamido)Methyl-β-D-Galactopyranoside]	> 4	> 4	> 4	> 10	> 4	–	> 4	> 4	–	> 4	–	–	–	–
CO[C@@H]1O[C@H](CO)[C@H](O)[C@@H](CNC(=O)c2ccccc2)[C@H]1O [Compound 7a, Methyl 3-Deoxy-3-C-Benzamidomethyl-β-D-Gulopyranoside]	> 4	> 4	> 4	1.8 ± 0.15	> 4	–	> 4	> 4	> 4	> 4	–	–	–	–
CO[C@@H]1O[C@H](CO)[C@H](O)[C@@H](CNC(C)=O)[C@H]1O [Compound 7b, Methyl 3-Deoxy-3-C-Acetamidomethyl-β-D-Gulopyranoside]	–	–	–	–	–	–	–	–	–	–	> 4	> 4	> 4	Kd ([2]; Table 2, average and SEM): > 4 mM; Kd (human galectin-7; Table 2): > 4 mM; Kd (human galectin-1; Table 2): 1.5 ± 0.08 mM; Kd ([3]; Table 2): 1.9 ± 0.05 mM; Kd ([6]; Table 2, average and SEM): > 4 mM; Kd ([5]; Table 2, average and SEM): 2.7 ± 0.5 mM; Kd (human galectin-3; Table 2): > 4 mM
CO[C@@H]1O[C@H](CO)[C@H](O)[C@H](CNC(=O)c2ccccc2F)[C@H]1O [Compound 7c, Methyl 3-Deoxy-3-C-(2-Fluorobenzamidomethyl)-β-D-Galactopyranoside]	–	–	–	–	–	–	–	–	–	–	> 4	> 4	> 4	Kd ([2]; Table 2, average and SEM): > 4 mM; Kd (human galectin-7; Table 2): > 4 mM; Kd (human galectin-1; Table 2): 1.9 ± 0.04 mM; Kd ([3]; Table 2): 2.2 ± 0.16 mM; Kd ([6]; Table 2, average and SEM): > 4 mM; Kd ([5]; Table 2, average and SEM): > 4 mM; Kd (human galectin-3; Table 2): > 4 mM
CO[C@@H]1O[C@H](CO)[C@H](O)[C@H](CNC(=O)c2cccc(F)c2)[C@H]1O [Compound 7d, Methyl 3-Deoxy-3-C-(3-Fluorobenzamidomethyl)-β-D-Galactopyranoside]	–	–	–	–	–	–	–	–	–	–	> 4	> 4	> 4	Kd ([2]; Table 2, average and SEM): > 4 mM; Kd (human galectin-7; Table 2): > 4 mM; Kd (human galectin-1; Table 2): 1.9 ± 0.4 mM; Kd ([3]; Table 2): > 4 mM; Kd ([6]; Table 2, average and SEM): > 4 mM; Kd ([5]; Table 2, average and SEM): > 4 mM; Kd (human galectin-3; Table 2): > 4 mM
CO[C@@H]1O[C@H](CO)[C@H](O)[C@@H](CNP(=O)(Oc2ccccc2)Oc2ccccc2)[C@H]1O [Compound 8, Methyl 3-Deoxy-3-C-(Diphenylphosphonamidomethyl)-β-D-Galactopyranoside]	> 5	> 4	> 4	> 10	> 4	–	> 4	> 4	–	> 4	–	–	–	–
CO[C@@H]1O[C@H](CO)[C@H](O)[C@@H](O)[C@H]1O [Compound 9, Methyl β-D-Gulopyranoside]	–	–	–	–	–	–	–	–	–	–	10 ± 1.5	> 4	> 4	Kd (human galectin-7; Table 2): > 4 mM
CO[C@@H]1O[C@H](CO)[C@H](O)[C@@H](NC(=O)c2ccccc2)[C@H]1O [Compound 10, Methyl 3-Benzamido-3-Deoxy-β-D-Gulopyranoside]	–	–	–	–	–	–	–	–	–	–	> 4	> 4	> 4	Kd ([2]; Table 2, average and SEM): > 4 mM; Kd (human galectin-1; Table 2): > 4 mM; binding to galectin-1 (in words) (human galectin-1; under the assay conditions): no binding; binding to galectin-4N (in words) [3]: improved binding; Kd ([3]; Table 2): 1.3 ± 0.2 mM; Kd ([6]; Table 2, average and SEM): > 4 mM; Kd ([5]; Table 2, average and SEM): > 4 mM; Kd (human galectin-3; Table 2): > 4 mM
